The target of the data set is ATP-dependent translocase ABCB1 (Homo sapiens, UniProt P08183). In words: TP_TRANSPORTER: transepithelial transport (basal to apical) in Caco-2 cells. In kind it is functional, cell-based.
ATP-dependent translocase ABCB1, sequence (P08183 whole entry): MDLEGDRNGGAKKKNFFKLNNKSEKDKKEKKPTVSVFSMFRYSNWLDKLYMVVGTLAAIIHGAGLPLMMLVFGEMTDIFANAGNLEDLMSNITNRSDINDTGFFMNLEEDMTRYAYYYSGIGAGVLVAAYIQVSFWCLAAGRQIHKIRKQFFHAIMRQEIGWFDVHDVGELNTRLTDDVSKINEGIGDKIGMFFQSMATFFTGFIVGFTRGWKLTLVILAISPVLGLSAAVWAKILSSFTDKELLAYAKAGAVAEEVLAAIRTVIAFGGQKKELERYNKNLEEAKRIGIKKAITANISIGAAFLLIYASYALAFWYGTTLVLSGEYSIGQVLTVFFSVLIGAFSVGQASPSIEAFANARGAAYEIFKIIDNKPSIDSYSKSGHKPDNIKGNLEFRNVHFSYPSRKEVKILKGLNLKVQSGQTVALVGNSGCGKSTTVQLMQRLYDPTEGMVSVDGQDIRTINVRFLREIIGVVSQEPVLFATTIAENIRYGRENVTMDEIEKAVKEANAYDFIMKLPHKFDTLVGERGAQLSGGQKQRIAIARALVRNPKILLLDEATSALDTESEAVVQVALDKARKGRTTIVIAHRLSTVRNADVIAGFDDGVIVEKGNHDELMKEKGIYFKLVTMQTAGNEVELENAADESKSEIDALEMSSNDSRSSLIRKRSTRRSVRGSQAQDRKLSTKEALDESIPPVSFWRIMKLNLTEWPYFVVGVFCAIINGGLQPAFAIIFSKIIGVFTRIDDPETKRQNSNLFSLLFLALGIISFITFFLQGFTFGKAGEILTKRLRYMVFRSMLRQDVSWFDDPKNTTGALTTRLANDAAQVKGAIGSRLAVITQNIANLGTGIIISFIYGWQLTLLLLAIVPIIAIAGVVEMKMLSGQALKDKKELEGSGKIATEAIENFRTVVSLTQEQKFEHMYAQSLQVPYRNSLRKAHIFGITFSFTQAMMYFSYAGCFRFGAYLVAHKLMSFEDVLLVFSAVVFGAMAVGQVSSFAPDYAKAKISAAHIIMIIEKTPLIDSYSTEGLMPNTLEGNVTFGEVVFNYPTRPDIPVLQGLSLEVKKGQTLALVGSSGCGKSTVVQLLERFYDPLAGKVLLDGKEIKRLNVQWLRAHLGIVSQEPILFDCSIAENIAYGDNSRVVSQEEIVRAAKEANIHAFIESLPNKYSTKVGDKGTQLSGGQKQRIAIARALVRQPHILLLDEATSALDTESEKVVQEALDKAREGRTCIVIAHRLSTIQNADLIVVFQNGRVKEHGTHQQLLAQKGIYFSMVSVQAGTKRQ

Consider `C[C@@H]1CN(c2c(F)c(N)c3c(=O)c(C(=O)O)cn(C4CC4)c3c2F)C[C@H](C)N1` [SPARFLOXACIN], for which the Activity result was “substrate [+]”.
